In patent publication US12576107B2, “Methods of treating chronic inflammatory diseases” (METIMEDI PHARMACEUTICALS CO., LTD., priority 2018, dated 2026):

How the values were obtained:
Assay type in all cases: in vivo, Sprague-Dawley (SD) rats
6-OHDA injected rats = test: Parkinson's disease model, desipramine and 6-OHDA injection; conditions: 2 mg/kg daily subcutaneous 21 days; 6-OHDA rats
Method: (§1) Animals. […] Eight-week old male Sprague-Dawley (SD) rats were obtained from Samtako Co. (Osan, Gyeonggi-do, Republic of Korea) and bred under specific-pathogen-free (SPF) conditions. All animals were maintained in a 12-hour light/dark cycle at 22-25° C. with free access to food and water.
Desipramine (12.5 mg/kg; noradrenaline transporter blocker; Sigma Aldrich, St. Louis, USA) was dissolved in saline for intraperitoneal injection. 6-OHDA (20 μg/rat, Sigma Aldrich, St. Louis, USA) was dissolved in saline for intracranial injection.
Injection of desipramine and 6-OHDA. The animals were injected with desipramine into the abdominal cavity (intraperitoneal injection) 30 min before 6-OHDA injection. 30 min after Desipramine injection, the animals were placed in a small acrylic cage that was coupled with an anesthesia machine that allowed them to breathe freely under gaseous anesthesia (2% isoflurane, Spartanburg, SC, USA). […] The animal fur of head was shaved with an electric clipper, and the skin was swabbed with iodine. All the surgical materials disinfected with 70% ethanol. Hamilton syringe barrel inner space was cleaned with distilled water and 70% ethanol. The Hamilton syringe was placed in the syringe holder. […] The three coordinates (AP: −5.6, LM: 2.0, and DV: −7.6) on the manipulator (in mm) were read and used as the starting point. […]

[1] = system: LPS-injected spinal cord of rats; test: Multiple sclerosis / spinal cord injury model, intraspinal injection of LPS; conditions: 2 mg/kg daily subcutaneous 21 days
Method: as §1
Dissolve 1 mg of LPS powder in 1 ml of saline. Keep the tubes on ice if LPS is going to be used fresh. For long storage, use screw cap vials are preferred. The aliquots were stored at deep freezer (−20° C.). Calcium lactate was purchased from Sigma Aldrich (St. Louis, USA).
Intraspinal injection of LPS. The animals were placed in a small acrylic cage that was coupled with an anesthesia machine that allowed them to breathe freely under gaseous anesthesia (2% isoflurane, Spartanburg, SC, USA). After full anesthesia of an animal was achieved, it was positioned on an operating table (while maintaining the gaseous anesthesia). For intraspinal injection of LPS, the laminectomy site of rats was exposed. Two small holes, 1 mm apart, were made in the dura over the left dorsal column. A volume of 1 μl of LPS solution was carefully drawn up into a sterile Hamilton syringe, and the LPS solution was slowly injected into the spinal cord. The syringe maintained in place for an additional 2 min to prevent back-flux from the injection site. Then, the injection site was closed by surgical clips.
Immunohistochemistry. […]

[2] = system: Indomethacin-induced colitis rats; test: Colitis model, subcutaneous Indomethacin; conditions: Four-week after treatment
Method: Animals. […] Six-week old male Sprague-Dawley (SD) rats were obtained from Samtako Co. (Osan, Gyeonggi-do, Republic of Korea) and bred under specific-pathogen-free (SPF) conditions. All animals were maintained in a 12-hour light/dark cycle at 22-25° C. with free access to food and water.
Agents and animal model. To induce Crohn's disease and colitis, Indomethacin was purchased from Sigma Chemical (St. Louis, Missouri, USA) and was dissolved in saline. […] Two models of inflammatory bowel disease were used. Crohn's disease was induced by oral administration of Indomethacin (7 mg/kg), and colitis was induced by subcutaneous injections of Indomethacin (7 mg/kg) daily at a 24 h intervals (FIGS. 40 and 42).
Histological analysis. The fixed flat-mounts were dehydrated in a graded series of ethanol and embedded in paraffin.

[3] = system: LPS-damaged brain of rats; test: Alzheimer and stroke model, intracranial injection of LPS; conditions: 2 mg/kg daily subcutaneous 21 days
Method: as §1
Dissolve 1 mg of LPS powder in 1 ml of saline. Keep the tubes on ice if LPS is going to be used fresh. For long storage, screw cap vials are preferred. The aliquots were stored at −20° C. Calcium lactate was purchased from Sigma Aldrich (St. Louis, MO, USA).
Intracranial injection of LPS. The animals were placed in a small acrylic cage that was coupled with an anesthesia machine that allowed them to breathe freely under gaseous anesthesia (2% isoflurane, Spartanburg, SC, USA). […] The animal fur of head was shaved with an electric clipper, and the skin was swabbed with iodine. LPS was kept it on ice before use. All the surgical materials disinfected with 70% ethanol. Hamilton syringe barrel inner space was cleaned with distilled water and 70% ethanol. The Hamilton syringe was placed in the syringe holder. The animal in the stereotaxic apparatus was placed on horizontal position. A midline incision (about 1 cm) on the skin of head was made with the scalpel. The needle of Hamilton syringe was placed on the bregma. Read the three coordinates (AP: −3.6, LM: 2.0, and DV: −3.8) on the manipulator (in mm) and write them down; this was used for starting point. Slowly, set the DV coordinate of the injection point; this inserts the needle tip into the brain until the injection point. The LPS solution (2 μl) was released at an approximate flow rate of 0.5 μl/min. After the injection, the needle was removed very slowly. The wound area was closed by suturing, and then disinfectant was applied. The rat was marked for further identification.
Immunohistochemistry. Brain tissue was sectioned at 5 μm on cryostat and stained for histological examination. Microscopic images were obtained at 200× magnification. […]

CC(O)C(=O)[O-].CC(O)C(=O)[O-].[Ca+2] (centres unmarked) [calcium lactate]
dopaminergic neuron (tyrosine hydroxylase staining) (6-OHDA injected rats): Recovery | demyelinated spinal cord [1]: Recovery | microglia infiltration (Iba-1) in spinal cord [1]: reduction | Superficial ulceration, polyp, and inflammation in the intestinal tissues ([2]; 2 mg/kg daily subcutaneous): clearly decreased | morphology of intestinal tissues vs. normal control [2]: morphologically recovered | damaged brain tissue [3]: Recovery | inflammatory reaction, which exacerbates Alzheimer's and stroke [3]: greatly reduced | microglia infiltration (Iba-1) in brain [3]: reduction
